Assay results published in PubChem BioAssay (NCI).
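How tested: cells in 96-well plates exposed to compound for 48 hours at five concentrations. GI50: concentration for 50% inhibition of growth. TGI denotes the concentration required for complete inhibition of growth.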

Columns and labels:
Assay in all cases: NCI tumour cell line growth inhibition, 48 h
786-0 renal = tested on: 786-0 renal
SK-MEL-2 melanoma = tested on: SK-MEL-2 melanoma
NCI-H460 lung = tested on: NCI-H460 lung
OVCAR-8 ovarian = tested on: OVCAR-8 ovarian
CCRF-CEM leukemia = tested on: CCRF-CEM leukemia
RXF 393 renal = tested on: RXF 393 renal
SR leukemia = tested on: SR leukemia
SF-268 CNS = tested on: SF-268 CNS
NCI-H23 lung = tested on: NCI-H23 lung
SNB-19 CNS = tested on: SNB-19 CNS

| Structure (SMILES) | GI50 (786-0 renal) | TGI (786-0 renal) | GI50 (SK-MEL-2 melanoma) | TGI (SK-MEL-2 melanoma) | GI50 (NCI-H460 lung) | TGI (NCI-H460 lung) | GI50 (OVCAR-8 ovarian) | TGI (OVCAR-8 ovarian) | GI50 (CCRF-CEM leukemia) | TGI (CCRF-CEM leukemia) | GI50 (RXF 393 renal) | TGI (RXF 393 renal) | GI50 (SR leukemia) | TGI (SR leukemia) | GI50 (SF-268 CNS) | TGI (SF-268 CNS) | GI50 (NCI-H23 lung) | TGI (NCI-H23 lung) | GI50 (SNB-19 CNS) | TGI (SNB-19 CNS) |
| --- | --- | --- | --- | --- | --- | --- | --- | --- | --- | --- | --- | --- | --- | --- | --- | --- | --- | --- | --- | --- |
| COCCNC(=O)c1ccc(-c2nc3ccc4[nH]ncc4c3c3c2CCCC3)cc1 | 2.12 µM | 16.2 µM | 2.16 µM | 7.97 µM | 1.86 µM | 27.1 µM | 2.64 µM | > 100 µM | 2.44 µM | 16.6 µM | 0.498 µM | 3.7 µM | 0.558 µM | 6.2 µM | 2.22 µM | 39.7 µM | 2.41 µM | 31.1 µM | 3.79 µM | > 100 µM |
| [C-]#[N+]C(C)(C)C[C@H]1CC(C)C2CCC(C)C3([N+]#[C-])CCC(=C)C1[C@H]23 (stereo partly specified) |  | 15.3 µM |  | 2.67 µM |  |  |  | 9.22 µM |  | > 50 µM |  | 10.5 µM |  | 8.74 µM |  | 10.5 µM |  | 19.6 µM |  | 17.5 µM |
| CC(C)(c1ccc(OC#N)cc1)c1ccc(OC#N)cc1 |  | > 100 µM |  | > 100 µM |  | > 82.4 µM |  | > 100 µM |  | > 73.7 µM |  | > 100 µM |  | 50.5 µM |  | > 100 µM |  | > 100 µM |  | > 100 µM |
| Clc1ccc2c(c1)-c1ccccc1C1=NCCN12 | 1.66 µM | 3.52 µM | 2.02 µM | 3.89 µM | 1.49 µM | 4.51 µM | 1.22 µM | 5.4 µM | 1.7 µM | 4.08 µM | 1.51 µM | 2.98 µM | 1.55 µM | 4.13 µM | 1.91 µM | 5.42 µM | 1.85 µM | 4.75 µM | 2.5 µM | 9.32 µM |
| COc1cc(/C=C/C(=O)c2c(C)n([O-])c3ccc(Cl)cc3[n+]2=O)cc(OC)c1OC | 33.1 µM | > 100 µM | > 100 µM | > 100 µM | 56.6 µM | > 100 µM | 11.8 µM | 33.4 µM | > 100 µM | > 100 µM | 10.2 µM | 30.2 µM | 8.4 µM | > 100 µM | 15.4 µM | > 100 µM | 50.5 µM | > 100 µM | 21.2 µM | 77 µM |
| O=C(CCCCCCC(=O)Nc1ccc2c(c1)/C(=C/c1ccc[nH]1)C(=O)N2)NO | 2.37 µM | 26.5 µM | 0.851 µM | 7.13 µM | 2.67 µM | > 100 µM | 0.472 µM | > 89.4 µM | 0.0923 µM | > 100 µM | 0.487 µM | 3.66 µM | 0.253 µM | > 100 µM | 1.05 µM | 13.3 µM | 1.88 µM | 14.8 µM | 0.585 µM | 33.2 µM |
| Cc1nn(-c2nc3ccccc3[nH]2)c2c1C(c1ccc3c(c1)OCO3)CC(=O)N2 (stereo unspecified) | 3.65 µM | 21.9 µM | 2.82 µM | 6.96 µM | 2.36 µM | 5.55 µM | 3.51 µM | > 100 µM | 1.94 µM | > 24.7 µM | 2.47 µM | 6.26 µM | 2.82 µM | > 24.9 µM | 3.38 µM | 11.7 µM | 2.13 µM | 4.72 µM | 4.45 µM | > 100 µM |
| O=C(N/N=C\c1ccc(N(CCCl)CCCl)cc1Cl)c1cccnc1 | 15.1 µM | 56.6 µM | 14.3 µM | 53.3 µM | 0.192 µM | 12.7 µM | 21.7 µM | > 88.8 µM | 14.5 µM | > 90.6 µM | 14.2 µM | 51.9 µM | 7.23 µM | 69.6 µM | 23.4 µM | > 84 µM | 9.59 µM | 54.9 µM | 45.1 µM | > 100 µM |
| OC(CNc1ccnc2cc(Cl)ccc12)CNC1CCCCC1 (stereo unspecified) | 11.8 µM | 24.8 µM | 2.28 µM | 4.86 µM | 13.8 µM | 30.2 µM | 5.07 µM | 19.9 µM | 7.29 µM | 42.4 µM | 2.5 µM | 8.72 µM | 1.95 µM | 5.13 µM | 8.23 µM | 21.9 µM | 15.9 µM | 41 µM | 22.4 µM | 75.5 µM |
| NC(CCSC(F)F)C(=O)O (stereo unspecified) |  | > 100 µM |  | > 100 µM |  | > 100 µM |  | > 100 µM |  | > 100 µM |  | > 100 µM |  | > 100 µM |  | > 100 µM |  | > 100 µM |  | > 100 µM |
| Cc1cccc2c1C(=O)OC2(C)c1cccc2ccccc12 (stereo unspecified) |  | > 100 µM |  | > 100 µM |  | > 100 µM |  | > 100 µM |  | 80.4 µM |  | 84.6 µM |  | 68.7 µM |  | > 100 µM |  | > 100 µM |  | > 100 µM |
| COc1ccccc1/C=N/N=C(\N)NO |  | 90 µM |  | > 100 µM |  | > 100 µM |  |  |  | > 100 µM |  | > 100 µM |  | > 100 µM |  | > 100 µM |  | > 100 µM |  | > 100 µM |
| C=CC(=O)Nc1cccc(C)c1Nc1ncc2cc(-c3c(Cl)c(OC)cc(OC)c3Cl)ccc2n1 | 2.33 µM | 10.1 µM | 4.26 µM | 28.7 µM | 1.64 µM | 11.5 µM | 4.83 µM | 47 µM | 4.44 µM | > 100 µM | 1.3 µM | 4.59 µM | 2.75 µM | > 100 µM | 3.69 µM | 38.6 µM | 9.31 µM | 34.2 µM | 4.14 µM | 47.1 µM |
| CC(=O)c1c[nH]cc1CO |  | > 10 µM |  | > 10 µM |  | > 10 µM |  | > 10 µM |  | > 10 µM |  | > 10 µM |  | > 10 µM |  | > 10 µM |  | > 10 µM |  | > 10 µM |
| Clc1nc(Cl)c(Cc2ccccc2)c(Cl)n1 |  | 10.4 µM |  | > 100 µM |  |  |  | 19 µM |  | > 100 µM |  | 11.1 µM |  | > 100 µM |  | 57.7 µM |  | 37.5 µM |  | 33.3 µM |
| O=C(NCP(=O)(O)O)c1cccnc1 |  | > 100 µM |  | > 100 µM |  | > 100 µM |  | > 100 µM |  | > 100 µM |  | > 100 µM |  | > 100 µM |  |  |  | > 100 µM |  | > 100 µM |
